Test results from ChEMBL document CHEMBL1132608, “Structure-activity relationship of diaryl phosphonate esters as potent irreversible dipeptidyl peptidase IV inhibitors” (J Med Chem, 1999).

Legend:
[1] = target: T1, Prolyl endopeptidase (Homo sapiens) (UniProt P48147); experiment: Effect on the activity of prolyl endopeptidase (PEP) is evaluated at 1 mM.
T1 sequence (whole entry): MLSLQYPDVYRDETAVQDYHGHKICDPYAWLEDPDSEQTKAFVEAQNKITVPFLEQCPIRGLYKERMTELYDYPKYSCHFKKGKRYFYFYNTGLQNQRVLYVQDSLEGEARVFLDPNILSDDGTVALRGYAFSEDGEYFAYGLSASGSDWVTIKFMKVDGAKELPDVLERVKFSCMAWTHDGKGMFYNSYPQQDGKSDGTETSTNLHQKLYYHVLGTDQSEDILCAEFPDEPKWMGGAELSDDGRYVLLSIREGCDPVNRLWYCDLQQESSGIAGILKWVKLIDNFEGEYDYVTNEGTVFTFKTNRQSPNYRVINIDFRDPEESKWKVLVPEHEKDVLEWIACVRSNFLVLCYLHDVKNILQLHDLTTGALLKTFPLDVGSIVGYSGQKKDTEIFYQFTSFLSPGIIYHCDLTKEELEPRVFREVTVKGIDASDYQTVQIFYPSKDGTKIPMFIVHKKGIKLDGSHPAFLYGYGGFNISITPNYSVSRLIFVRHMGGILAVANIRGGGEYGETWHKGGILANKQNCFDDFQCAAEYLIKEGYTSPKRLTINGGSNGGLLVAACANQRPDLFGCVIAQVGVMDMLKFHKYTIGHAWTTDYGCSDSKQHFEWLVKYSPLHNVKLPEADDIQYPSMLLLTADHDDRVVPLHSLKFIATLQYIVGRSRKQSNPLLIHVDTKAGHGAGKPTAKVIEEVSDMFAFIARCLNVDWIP

[2] = Functional stability in plasma was estimated by fitting the inverse of apparent IC50 values verses time with a single-exponential decay; type: ADME, cell-free
[3] = target: T1, Prolyl endopeptidase (Homo sapiens); experiment: Effect on the activity of prolyl endopeptidase (PEP) is evaluated at the IC50 concentration for DPPIV.
Homo sapiens [4] = organism: Homo sapiens; experiment: Effect on the activity of elastase is evaluated at a concentration of 1 mM.; type: functional
[5] = target: Dipeptidyl peptidase 4 (Mus musculus) (UniProt P28843)
Description: Effect on the activity of Dipeptidylpeptidase II (DPP II) is evaluated at a concentration of 1 mM.

[6] = Effect on the activity of membrane alanyl aminopeptidase (MAAP) is evaluated at the IC50 concentration for DPPIV.
[7] = target: Dipeptidyl peptidase 4 (Mus musculus) (UniProt P28843); remark: listed apart in the source
Description: Effect on the activity of Dipeptidylpeptidase II (DPP II) is evaluated at the IC50 concentration for DPPIV.

Homo sapiens [8] = organism: Homo sapiens; experiment: cells
Dipeptidyl peptidase 4 = Dipeptidyl peptidase 4 (Homo sapiens, UniProt P27487)
Description: In vitro inhibition of human Dipeptidylpeptidase IV.

[9] = target: Aminopeptidase N (Homo sapiens) (UniProt P15144); experiment: Effect on the activity of membrane alanyl aminopeptidase (MAAP) is evaluated at a concentration of 1 mM.
Homo sapiens [10] = organism: Homo sapiens; experiment: Effect on the activity of elastase was determined as IC50; type: functional

Chain of Dipeptidyl peptidase 4 (Mus musculus) (P28843 whole entry, looked up): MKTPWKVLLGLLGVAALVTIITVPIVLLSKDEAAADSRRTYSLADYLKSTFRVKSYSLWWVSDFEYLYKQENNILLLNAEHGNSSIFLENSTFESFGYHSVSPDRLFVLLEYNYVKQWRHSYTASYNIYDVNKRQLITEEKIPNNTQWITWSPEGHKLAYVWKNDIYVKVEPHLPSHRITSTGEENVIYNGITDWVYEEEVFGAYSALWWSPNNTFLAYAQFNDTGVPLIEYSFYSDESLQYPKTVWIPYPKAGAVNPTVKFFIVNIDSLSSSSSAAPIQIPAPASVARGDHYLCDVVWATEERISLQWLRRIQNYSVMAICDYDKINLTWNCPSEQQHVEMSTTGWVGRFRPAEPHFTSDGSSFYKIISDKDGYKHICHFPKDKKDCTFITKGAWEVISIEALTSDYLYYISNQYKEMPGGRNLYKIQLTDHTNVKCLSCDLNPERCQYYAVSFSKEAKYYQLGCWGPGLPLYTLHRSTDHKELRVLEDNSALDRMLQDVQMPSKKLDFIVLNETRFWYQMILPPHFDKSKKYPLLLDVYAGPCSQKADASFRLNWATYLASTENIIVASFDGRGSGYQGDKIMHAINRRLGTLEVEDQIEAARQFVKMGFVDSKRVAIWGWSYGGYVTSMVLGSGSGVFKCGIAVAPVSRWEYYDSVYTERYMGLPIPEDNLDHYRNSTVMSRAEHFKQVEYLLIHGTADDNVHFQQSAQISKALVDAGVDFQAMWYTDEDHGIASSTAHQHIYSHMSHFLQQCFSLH
Chain of Dipeptidyl peptidase 4 (P27487 whole entry): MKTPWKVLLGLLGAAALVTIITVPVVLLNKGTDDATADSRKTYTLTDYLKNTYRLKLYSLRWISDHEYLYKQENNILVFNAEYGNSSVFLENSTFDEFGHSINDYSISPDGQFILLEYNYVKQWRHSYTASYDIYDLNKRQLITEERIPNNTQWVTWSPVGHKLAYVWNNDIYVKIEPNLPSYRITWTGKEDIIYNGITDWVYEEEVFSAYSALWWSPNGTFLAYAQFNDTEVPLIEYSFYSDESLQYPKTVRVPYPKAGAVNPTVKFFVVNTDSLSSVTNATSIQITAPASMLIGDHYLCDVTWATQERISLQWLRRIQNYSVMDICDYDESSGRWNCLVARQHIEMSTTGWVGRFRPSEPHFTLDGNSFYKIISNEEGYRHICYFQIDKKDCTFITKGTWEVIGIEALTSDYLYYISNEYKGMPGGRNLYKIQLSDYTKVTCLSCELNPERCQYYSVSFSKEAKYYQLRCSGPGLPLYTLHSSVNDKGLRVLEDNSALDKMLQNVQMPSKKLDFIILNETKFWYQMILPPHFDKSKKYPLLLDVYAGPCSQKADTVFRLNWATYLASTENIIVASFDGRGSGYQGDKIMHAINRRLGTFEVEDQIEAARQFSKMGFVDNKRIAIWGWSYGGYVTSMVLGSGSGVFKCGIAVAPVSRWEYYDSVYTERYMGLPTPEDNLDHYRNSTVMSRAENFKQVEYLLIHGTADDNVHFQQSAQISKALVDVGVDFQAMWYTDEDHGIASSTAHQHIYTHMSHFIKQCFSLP
Chain of Aminopeptidase N (Homo sapiens) (P15144 whole entry): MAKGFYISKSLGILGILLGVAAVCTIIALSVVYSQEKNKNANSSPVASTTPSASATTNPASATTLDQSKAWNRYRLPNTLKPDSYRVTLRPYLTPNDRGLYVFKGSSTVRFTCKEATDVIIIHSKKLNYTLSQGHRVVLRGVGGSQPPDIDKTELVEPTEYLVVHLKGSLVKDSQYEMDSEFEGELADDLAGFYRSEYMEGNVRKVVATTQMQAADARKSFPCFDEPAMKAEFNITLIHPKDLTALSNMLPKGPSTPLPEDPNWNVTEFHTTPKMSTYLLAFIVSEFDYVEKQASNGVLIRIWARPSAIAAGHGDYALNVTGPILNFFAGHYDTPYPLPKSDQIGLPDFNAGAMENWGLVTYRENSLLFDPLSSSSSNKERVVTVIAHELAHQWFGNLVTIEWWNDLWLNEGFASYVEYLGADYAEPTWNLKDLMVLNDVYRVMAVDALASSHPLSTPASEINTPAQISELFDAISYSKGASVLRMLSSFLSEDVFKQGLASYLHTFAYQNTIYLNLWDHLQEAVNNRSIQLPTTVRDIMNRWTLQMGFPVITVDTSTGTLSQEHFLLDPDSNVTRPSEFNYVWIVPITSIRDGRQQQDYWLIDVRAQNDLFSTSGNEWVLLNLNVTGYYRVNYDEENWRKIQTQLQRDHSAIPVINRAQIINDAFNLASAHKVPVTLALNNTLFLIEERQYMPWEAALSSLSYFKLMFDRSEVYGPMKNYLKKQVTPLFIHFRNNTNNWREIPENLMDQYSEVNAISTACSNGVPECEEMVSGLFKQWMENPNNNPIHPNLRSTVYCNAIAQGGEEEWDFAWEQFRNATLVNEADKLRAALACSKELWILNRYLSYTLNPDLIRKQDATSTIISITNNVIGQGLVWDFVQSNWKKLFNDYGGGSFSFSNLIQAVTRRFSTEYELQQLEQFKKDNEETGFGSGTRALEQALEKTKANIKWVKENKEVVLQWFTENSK

| Structure (SMILES) | Specificity [1] | half-life [2] [min] | Specificity [3] | IC50 (Dipeptidyl peptidase 4) [µM] | also measured |
| --- | --- | --- | --- | --- | --- |
| COC(=O)CCNC(=O)c1ccc(OP(=O)(Oc2ccc(C(=O)NCCC(=O)OC)cc2)C2CCCN2C(=O)C2CCCN2)cc1.Cl (stereo not given) | 0 | 26 | 83 |  |  |
| Cl.O=C([C@H]1CCCN1)N1CCCC1P(=O)(Oc1ccccc1)Oc1ccccc1 (stereo not given in full) | 71 | 300 | 107 |  | Specificity (Homo sapiens [4]): 82; Specificity [5]: 73; Specificity [6]: 100; Specificity [7]: 102; IC50 (Homo sapiens [8]): 100 µM |
| COC(=O)c1ccc(OP(=O)(Oc2ccc(C(=O)OC)cc2)C2CCCN2C(=O)C2CCCN2)cc1 (stereo not given) | 4 |  | 73 |  |  |
| COc1ccc(OP(=O)(Oc2ccc(OC)cc2)C2CCCN2C(=O)C2CCCN2)cc1.Cl (stereo not given) |  | 470 |  | 22 |  |
| CC(=O)Nc1cccc(OP(=O)(Oc2cccc(NC(C)=O)c2)C2CCCN2C(=O)C2CCCN2)c1.Cl (stereo not given) |  | 220 |  |  |  |
| Cl.O=C([C@@H]1CCCN1)N1CCCC1P1(=O)Oc2ccccc2-c2ccccc2O1 (stereo not given in full) |  | 6 |  | 31 |  |
| CCOC(=O)CNC(=O)c1ccc(OP(=O)(Oc2ccc(C(=O)NCC(=O)OCC)cc2)C2CCCN2C(=O)C2CCCN2)cc1.Cl (stereo not given) | 1 | 35 | 85 |  | Specificity (Homo sapiens [4]): 6; Specificity [5]: 66; Specificity [9]: 94; Specificity [7]: 78; IC50 (Homo sapiens [10]): 102 µM |
| C[C@H](N)C(=O)Nc1ccc(OP(=O)(Oc2ccc(NC(=O)[C@@H](C)N)cc2)C2CCCN2C(=O)C2CCCN2)cc1.Cl (stereo not given in full) | 47 | 8 | 88 | 0.6 |  |
| O=C(C1CCCN1)N1CCCC1P(=O)(OCC(F)(F)F)OCC(F)(F)F (stereo not given) |  |  |  | 9100 |  |
| CS(=O)(=O)Nc1ccc(OP(=O)(Oc2ccc(NS(C)(=O)=O)cc2)C2CCCN2C(=O)C2CCCN2)cc1.Cl (stereo not given) | 4 | 150 | 73 |  |  |
| CCCNC(=O)c1ccc(OP(=O)(Oc2ccc(C(=O)NCCC)cc2)C2CCCN2C(=O)C2CCCN2)cc1.Cl (stereo not given) | 5 | 12 | 97 |  |  |
| CC(=O)Nc1ccc(OP(=O)(Oc2ccc(NC(C)=O)cc2)C2CCCN2C(=O)C2CCCN2)cc1.Cl (stereo not given) | 60 |  | 96 |  | Specificity (Homo sapiens [4]): 105; Specificity [5]: 83; Specificity [6]: 99; Specificity [9]: 96; Specificity [7]: 100 |
| Cl.O=C(C1CCCN1)N1CCCC1P(=O)(Oc1ccc(NN2CCCC2)cc1)Oc1ccc(NN2CCCC2)cc1 (stereo not given) |  |  |  | 5 |  |
| Cl.NCC(=O)Nc1ccc(OP(=O)(Oc2ccc(NC(=O)CN)cc2)C2CCCN2C(=O)C2CCCN2)cc1 (stereo not given) |  | 28 |  |  |  |
| Cl.O=C(CNC(=O)c1ccccc1)Nc1ccc(OP(=O)(Oc2ccc(NC(=O)CNC(=O)c3ccccc3)cc2)C2CCCN2C(=O)C2CCCN2)cc1 (stereo not given) | 32 | 93 | 92 |  |  |
| Cl.NC(=O)Nc1cccc(OP(=O)(OC2=CC=CC(NC(N)=O)C2)C2CCCN2C(=O)C2CCCN2)c1 (stereo not given) |  |  |  | 2.3 |  |
| O=C(C1CCCN1)N1CCCC1P(=O)(OCC(Cl)(Cl)Cl)OCC(Cl)(Cl)Cl (stereo not given) |  |  |  | 1800 |  |
| Cl.O=C(C1CCCN1)N1CCCC1P(=O)(Oc1ccc(O)cc1)Oc1ccc(O)cc1 (stereo not given) |  | > 200 |  | 190 |  |
| COC(=O)C(Cc1ccc(OP(=O)(Oc2ccc(CC(NC(C)=O)C(=O)OC)cc2)C2CCCN2C(=O)C2CCCN2)cc1)NC(C)=O (stereo not given) | 35 |  | 102 |  |  |
